Values of other authors, collected in patent US7572882B2 (priority 2000, dated 2009).

How the values were obtained:
T helper lymphocytes = details: regardless of HLA type

aKXVAAWTLKAAa
stimulation of the response of T helper lymphocytes (T helper lymphocytes): stimulate the response of T helper lymphocytes from most individuals
binding to HLA-DR alleles (HLA-DR alleles): bind to most HLA-DR alleles
